From US8952150B2, “Prostaglandin transporter inhibitors and uses thereof” (Albert Einstein College of Medicine of Yeshiva University, priority 2009, dated 2015)

Molecular target: rat PGT (Rattus norvegicus (Rat), UniProt Q00910)
Assay: [3H]PGE2 uptake inhibition in MDCK cells stably transfected with rat PGT (percent inhibition and IC50)
Type: cell-based
Settings: for Inh (% of Ctl) 0.5 μM: 0.5 μM compound; for Inh (% of Ctl) 0.5 μM / Inh (% of Ctl) 1 μM / Inh (% of Ctl) 5 μM / Inh (% of Ctl) 10 μM / Inh (% of Ctl) 0.1 μM / Inh (% of Ctl) 2.5 μM: inhibition of [3H]PGE2 uptake; for Inh (% of Ctl) 1 μM: 1 μM compound; for Inh (% of Ctl) 5 μM: 5 μM compound; for Inh (% of Ctl) 10 μM: 10 μM compound; for IC50: [3H]PGE2 uptake, MDCK cells stably transfected with rat PGT; for Inh (% of Ctl) 0.1 μM: 0.1 μM compound; for Inh (% of Ctl) 2.5 μM: 2.5 μM compound
Method: MDCK cells stably transfected with rat PGT (Endo et al., 2002) were seeded at 15-20% confluence on 24-well plates. The day on which the cells were seeded was considered day 1. PGE2 uptake experiments were conducted on day 4. All of the PGE2 uptake experiments were conducted at room temperature. On day 4, cells were washed twice with Waymouth buffer (135 mM NaCl, 13 mM H-Hepes, 13 mM Na-Hepes, 2.5 mM CaCl2, 1.2 mM MgCl2, 0.8 mM MgSO4, 5 mM KCl, and 28 mM D-glucose). Then 200 μL of Waymouth buffer containing [^3H]PGE2 (purchased from Perkin Elmer) was added to each well. At the designed time, the uptake of [^3H]PGE2 was stopped by aspiration of uptake buffer; this was followed by immediate washing twice with 500 μL of chilled Waymouth buffer. Cells were then lysed with 100 μL lysis buffer containing 0.25% SDS and 0.05 N NaOH. 1.5 mL of scintillation solution was added to each well, and intracellular [^3H]PGE2 was counted by MicroBeta Counter.
For preliminary testing of the compounds, 20 μL of Waymouth buffer containing the compound was added to each well; this was immediately followed by the addition of 180 μL of Waymouth buffer containing [^3H]PGE2. In each well, the total volume of uptake medium was 200 μL. Organic compounds were first dissolved in EtOH and then diluted in Waymouth buffer. The percent inhibition of [^3H]PGE2 uptake by compounds was calculated as [(uptakevehicle−uptakeinhibitor)÷(uptakevehicle)]×100.
IC50 was calculated by fitting an equation of y=m1−m1*(m0/(m2+m0)).

Structure (SMILES)	Inh (% of Ctl) 0.5 μM	Inh (% of Ctl) 1 μM	Inh (% of Ctl) 5 μM	Inh (% of Ctl) 10 μM	IC50	Inh (% of Ctl) 0.1 μM	Inh (% of Ctl) 2.5 μM
O=C(NCCOCCOCCNc1nc(Nc2ccc(C(=O)NCc3ccccc3)cc2)nc(Nc2ccc3[nH]ncc3c2)n1)c1ccccc1 [compound 64]	15.5 % of Ctl	71.6 % of Ctl	77.2 % of Ctl	90.2 % of Ctl	115 nM	–	–
O=C(NCCOCCOCCNc1nc(Nc2ccc(O)cc2)nc(Nc2ccc(C(=O)NCc3cccc(C(F)(F)F)c3)cc2)n1)c1ccccc1 [compound 101]	54.0 % of Ctl	–	91.4 % of Ctl	–	–	47.4 % of Ctl	71.0 % of Ctl
O=C(O)c1ccc(Nc2nc(NCCOCCOCCNC(=O)c3ccccc3)nc(Nc3ccc(O)cc3)n2)cc1 [compound 13]	19.2 % of Ctl	–	19.3 % of Ctl	–	–	–	–
O=S(=O)(NCCOCCOCCNc1nc(Nc2ccccc2)nc(Nc2ccc(O)cc2)n1)c1ccccc1 [compound 38]	–	22.8 % of Ctl	–	63.0 % of Ctl	–	–	–
O=C(NCCOCCOCCNc1nc(Nc2ccc(O)cc2)nc(Nc2ccc(C(=O)NCc3cccc(F)c3)cc2)n1)c1ccccc1 [compound 105]	64.6 % of Ctl	–	92.45 % of Ctl	–	47.5 nM	67.9 % of Ctl	81 % of Ctl
O=C(NCCOCCOCCNc1nc(Nc2ccc(O)cc2)nc(Nc2ccc(C(=O)NCc3cccc(-c4ccccc4)c3)cc2)n1)c1ccccc1 [compound 90]	23.4 % of Ctl	–	72.7 % of Ctl	–	–	–	60.6 % of Ctl
O=C(NCCOCCOCCNc1nc(Nc2ccc(O)cc2)nc(Nc2ccc(C(=O)NCc3cccnc3)cc2)n1)c1ccccc1 [compound 67]	13.4 % of Ctl	–	76.1 % of Ctl	–	–	–	–
O=C(NCCOCCOCCNc1nc(Nc2ccc(O)cc2)nc(Nc2ccc(CO)cc2)n1)c1ccccc1 [compound 26]	2.6 % of Ctl	–	35.2 % of Ctl	–	–	–	–
COC(=O)CCCCCCNc1nc(Nc2ccccc2)nc(Nc2ccc(O)cc2)n1 [compound 50]	–	9.3 % of Ctl	–	15.1 % of Ctl	–	–	–
CC(=O)NCCOCCOCCNc1nc(Nc2ccccc2)nc(Nc2ccc(O)cc2)n1 [compound 41]	–	0.3 % of Ctl	–	6.6 % of Ctl	–	–	–
COc1cc(Nc2nc(NCCOCCOCCNC(=O)c3ccccc3)nc(Nc3ccc(O)cc3)n2)ccc1C(=O)NCc1ccccc1 [compound 81]	0.4 % of Ctl	–	80.1 % of Ctl	–	–	–	16.2 % of Ctl
O=C(NCc1ccccc1)c1ccc(Nc2nc(NCCOCCNS(=O)(=O)c3ccccc3)nc(Nc3ccc(O)cc3)n2)cc1 [compound 138]	22.5 % of Ctl	34.5 % of Ctl	–	–	–	17.8 % of Ctl	–
COC(=O)Cc1ccc(Nc2nc(NCCOCCOCCNC(=O)c3ccccc3)nc(Nc3ccccc3)n2)cc1 [compound 60]	–	7.2 % of Ctl	–	34.5 % of Ctl	–	–	–
O=C(O)Cc1ccc(Nc2nc(NCCOCCOCCNC(=O)c3ccccc3)nc(Nc3ccc(C(=O)NCc4ccccc4)cc3)n2)cc1 [compound 125]	24.3 % of Ctl	–	–	–	–	3.2 % of Ctl	–
O=C(NCCOCCOCCNc1nc(Nc2ccc(C(=O)NCc3ccc(F)cc3)cc2)nc(Nc2ccc(O)c(C(=O)O)c2)n1)c1ccccc1 [compound 146]	59.8 % of Ctl	70.4 % of Ctl	–	–	44.8 nM	28.5 % of Ctl	–
O=C(NCCOCCOCCNc1nc(Nc2ccccc2)nc(Nc2ccc(O)cc2)n1)c1ccccc1 [compound 4]	7.0 % of Ctl	32.4 % of Ctl	67.6 % of Ctl	81.5 % of Ctl	4850 nM	–	–
Cc1ccc(CNC(=O)c2ccc(Nc3nc(NCCOCCOCCNC(=O)c4ccccc4)nc(Nc4ccc(O)cc4)n3)cc2)cc1 [compound 102]	41.9 % of Ctl	–	88.0 % of Ctl	–	–	–	65.7 % of Ctl
O=C(NCc1ccccc1)c1ccc(Nc2nc(NCCOCCNC(=O)c3ccccc3C(F)(F)F)nc(Nc3ccc(O)cc3)n2)cc1 [compound 134]	27.7 % of Ctl	46.7 % of Ctl	–	–	–	14.0 % of Ctl	–
O=C(NCCOCCOCCNc1nc(Nc2ccc(O)cc2)nc(Nc2ccc(C(=O)NCc3ccc(Br)cc3)cc2)n1)c1ccccc1 [compound 109]	55.6 % of Ctl	–	85.1 % of Ctl	–	–	49.5 % of Ctl	59.8 % of Ctl
O=C(NCCOCCNc1nc(Nc2ccc(O)cc2)nc(Nc2ccc(C(=O)NCc3ccccc3)cc2)n1)c1ccccc1 [compound 118]	90.7 % of Ctl	–	–	–	20.9 nM	74.2 % of Ctl	–
O=C(NCCCCCNc1nc(Nc2ccccc2)nc(Nc2ccc(O)cc2)n1)c1ccccc1 [compound 85]	–	7.6 % of Ctl	12.2 % of Ctl	49.6 % of Ctl	–	–	–
O=C(NCCOCCOCCNc1nc(Nc2ccc(O)cc2)nc(Nc2ccc(C(=O)NCc3ccc(C(F)(F)F)cc3)cc2)n1)c1ccccc1 [compound 113]	49.2 % of Ctl	–	92.4 % of Ctl	–	–	36.8 % of Ctl	84.1 % of Ctl
O=C(NCCOCCNc1nc(Nc2ccc(O)cc2)nc(Nc2ccc(C(=O)NCc3ccc(F)cc3)cc2)n1)c1ccccc1 [compound 147]	70.2 % of Ctl	79.5 % of Ctl	–	–	31.7 nM	44.5 % of Ctl	–
O=C(NCCOCCOCCNc1nc(Nc2ccccc2)nc(Nc2ccc(OCc3ccccc3)cc2)n1)c1ccccc1 [compound 2]	1.6 % of Ctl	–	6.5 % of Ctl	–	–	–	–
O=C(NCc1ccc(F)cc1)c1ccc(Nc2nc(Nc3ccc(O)cc3)nc(Nc3ccc(C(=O)NCc4ccc(F)cc4)cc3)n2)cc1 [compound 148]	12.9 % of Ctl	20.7 % of Ctl	–	–	–	8.4 % of Ctl	–
O=C(NCCOCCOCCNc1nc(Nc2ccc(O)cc2)nc(Nc2ccc(C(=O)NCc3cc(F)ccc3F)cc2)n1)c1ccccc1 [compound 127]	52.3 % of Ctl	70.2 % of Ctl	–	–	–	17.0 % of Ctl	–
O=C(O)COCCOCCNc1nc(Nc2ccccc2)nc(Nc2ccc(O)cc2)n1 [compound 51]	–	17.4 % of Ctl	–	29.8 % of Ctl	–	–	–
CN(c1ccc(O)cc1)c1nc(NCCOCCOCCNC(=O)c2ccccc2)nc(Nc2ccc(C(=O)NCc3ccccc3)cc2)n1 [compound 123]	36.6 % of Ctl	–	–	–	–	12.0 % of Ctl	–
O=C(NCCOCCOCCNc1nc(Nc2ccc(O)cc2)nc(Nc2ccc(C(=O)NCc3ccc(-c4ccccc4)cc3)cc2)n1)c1ccccc1 [compound 93]	24.6 % of Ctl	–	51.1 % of Ctl	–	–	–	43.3 % of Ctl
